How the values were obtained:
[1] = parameters: method as in Kim et al., unpublished data; settings: ref Kim et al., unpublished data; cited from earlier work
[2] = WST-1 cell proliferation assay, ORL8 cells; assay type: cell-based; settings: human
Protocol: The WST-1 cell proliferation assay was performed as described previously. Briefly, The cells were plated onto 96-well plates (1×10^3 cells per well) in triplicate and then treated with each reagent at several concentrations for 72 hrs. After treatment, the cells were subjected to the WST-1 cell proliferation assay (Takara Bio, Otsu, Japan) according to the manufacturer’s protocol. This assay is based on the enzymatic cleavage of the tetrazolium salt WST-1 to formazan by cellular mitochondrial dehydrogenases present in viable cells. Therefore, there are […] the value of the WST-1 assay becomes zero. The experiments were performed at least in triplicate. From the assay results, the 50% cytotoxic concentration (CC50) of each reagent was determined.

[3] = system: authentic 9.6 kb HCV-RNA replication in HCV-O/RLGE cells; test: Quantitative RT-PCR of authentic HCV-RNA in HCV-O/RLGE cells; assay type: cell-based; settings: Hepatitis C virus, 72 hrs, real-time LightCycler PCR
Protocol: (§1) The SI value of each reagent was determined by dividing the CC50 value by the EC50 value.
The RNAs from HCV-RNA replicating cell lines were prepared with an RNeasy extraction kit (Qiagen). The quantitative RT-PCR analysis for HCV-RNA was performed using a real-time LightCycler PCR (Roche Diagnostics, Basel, Switzerland) as described previously, [20].
The genome-length HCV-RNA used in the assay systems described above contains three non-natural elements: RL, neomycin phosphotransferase, and an internal ribosomal entry site of encephalomyocarditis virus. To exclude the possibility that the anti-HCV activity of N-89 or N-251 was due to the inhibition of these three exogenous elements, we examined the anti-HCV activities of N-89 and N-251 using the authentic 9.6 kb HCV-RNA-replicating HCV-O/RLGE cells, which were developed by the introduction of in vitro synthesized HCV-O/RLGE RNA (Fig. 2A) into OR6c cured cells.
Figure 2 Characterization of anti-HCV activities of N-89 and N-251. (A) Schematic gene organization of authentic HCV-RNA (HCV-O/RLGE). The positions of four adaptive mutations - Q1112R, P1115L, E1202G, and K1609E - are indicated by a black star. […] The relative value (%) calculated at each point, when the level in non-treated cells was assigned as 100%, is presented here. Data are expressed as the means±standard deviation of triplicate assays. […]

[4] = system: HCV-RNA replication in ORL8 cells; test: Effect of VE on anti-HCV activity, ORL8 RL assay; assay type: cell-based, hepatitis C virus; settings: 72 hrs
Protocol: After treatment, an RL assay of harvested ORL8 cell samples was performed. (B, D, and F) The ratio of RL activity in the presence of VE to the RL activity in the absence of VE. The above ratio was calculated from the data of (A, C, and E). […] (G) Western blot analysis was performed as described in Fig. 1B.
The ORL8 cells were treated with N-89 or IFN-α, and then RL assays were performed at 2 to 72 hrs after the treatment. The relative value (%) calculated at each time point, when the luciferase activity of non-treated cells at 24 hrs was assigned as 100%, is shown. Data are expressed as the means±standard deviation of triplicate assays. […] To evaluate this possibility, we examined the effect of VE on N-89 at the EC90 level in the ORL8 assay.

[5] = system: genome-length HCV-RNA (O strain of genotype 1b) replication in Li23-derived ORL11 cells; test: ORL11 RL assay; assay type: cell-based; settings: Hepatitis C virus, 72 hrs
Protocol: RSc and D7 cells were derived from the cell lines HuH-7 and Li23, respectively, were cultured as described previously, [29]. HuH-7-derived OR6 [13], AH1R [30], and 1B-4R [Ikeda et al., submitted] cells harboring genome-length HCV-RNA and HuH-7-derived polyclonal sOR [31], and RSc-JRN/35B [Ikeda et al., submitted] cells harboring an HCV subgenomic replicon were cultured with medium in the presence of G418 (0.3 mg/ml; Geneticin, Invitrogen, Carlsbad, CA) as described previously. Li23-derived ORL8 [20], ORL11 [20], 1B-4RL [Ikeda et al., submitted], and KAH5RL [Ikeda et al., submitted] cells harboring genome-length HCV-RNA were maintained with medium in the presence of G418 (0.3 mg/ml) as described previously. Li23-derived polyclonal sORL8 and sORL11 cells harboring an HCV replicon, which were established by the transfection of ORN/3-5B/QR,KE,SR RNA into the cured OL8 and OL11 cells, respectively, were also cultured with medium in the presence of G418 (0.3 mg/ml) as described previously. Cured cells, from which the HCV-RNA had been eliminated by IFN treatment, were also maintained with medium in the absence of G418 as described previously. […] Therefore, when HCV-RNA is excluded from the cells or when its level is decreased, the cells are killed in the presence of G418. […]
as §1

[6] = system: HCV-JFH-1 strain (genotype 2a) in Li23-derived D7 cells; test: JFH-1 reporter assay system, D7 cells; assay type: cell-based, hepatitis C virus; settings: D7 cells inoculated with JR/C5B/BX-2 supernatant, RL assay
Protocol: HCV infection was performed as described previously. RSc and D7 cells were inoculated with supernatant from RSc cells replicating JR/C5B/BX-2 [29].
Figure 2 Characterization of anti-HCV activities of N-89 and N-251. (A) Schematic gene organization of authentic HCV-RNA (HCV-O/RLGE). The positions of four adaptive mutations - Q1112R, P1115L, E1202G, and K1609E - are indicated by a black star. (B) N-89 and N-251 inhibited authentic HCV-RNA replication. The cells harboring HCV-O/RLGE RNA [19] were treated with N-89 (left panel) and N-251 (right panel) for 72 hrs, followed by real-time LightCycler PCR (black circles in the upper panel) and WST-1 assay (open triangles in the upper panel). The relative value (%) calculated at each point, when the level in non-treated cells was assigned as 100%, is presented here. Data are expressed as the means±standard deviation of triplicate assays. Western blot analysis (lower panels) was performed as described in Fig. 1B. […]
We next examined whether N-89 and N-251 worked in an HCV production system using HCV-JFH-1 strain (genotype 2a). […] To clarify whether anti-HCV activity depends on the difference of genotype or assay model, we evaluated the activities of N-89 and N-251 using RSc-JRN/35B [Ikeda et al., submitted] cells harboring a subgenomic HCV-JFH-1 replicon as an additional assay.

Structure (SMILES) | blood concentration [1] | CC50 at 72 h [2] | EC50 [3] | VE 10μM(+) / VE 10μM(-) ratio of RL activity ([4]; reagent at expected EC90, Fig. 5B (control 3.0)) | EC50 [5] | anti-HCV activity for the HCV-JFH-1 strain [6] | VE 10μM(+) / VE 10μM(-) ratio of RL activity ([4]; reagent at expected EC90, Fig. 5D (control 2.3))
C1CCCCCC2(CCCCC1)OOCCCOO2 [N-89, 1,2,6,7-Tetraoxaspiro[7.11]nonadecane] | approximately 1 µM | 2300 nM | 2000 nM | 16 | 45 nM | did not show anti-HCV activity | 
OCCCCCCC1COOC2(CCCCCCCCCCC2)OOC1 [N-251, 6-(1,2,6,7-tetraoxaspiro[7.11]nonadec-4-yl)hexan-1-ol] | approximately 1 µM | 1300 nM | 1600 nM |  | 59 nM | did not show anti-HCV activity | 13
